Where a name gives a salt, the structure may show the parent alone.
What follows are compounds tested on mice (assay: Analgesia, thermal radiation (tail flick) test on mice, intravenous). Details: Mus musculus, 20 min, determined at effective maximum 20 minutes after administration, effect = latency ≥150% of pre-test average.
Type: in vivo, mice (male NMRI)
Source text: Testing for analgesia using the tail flick test on mice
The analgesic effectiveness of the compounds according to the invention was investigated in the thermal radiation (tail flick) test on mice using the method of D'Amour and Smith (J. Pharm. Exp. Ther. 72, 74-79 (1941). Male NMRI mice with a weight between 20 and 24 g were used for this purpose. The animals were placed individually in special test cages and the bases of their tails were exposed to the focused thermal radiation from an electric lamp (Rhema Analgesiemeter Type 3010). The lamp intensity was adjusted so that the time from switching on the lamp until the sudden twitching away of the tail (latency of pain) was 3-5 seconds for untreated animals. Before the administration of a compound according to the invention, the animals were pre-tested twice within five minutes and the average value of these measurements was calculated as the pre-test average. The pain measurement was made 20, 40 and 60 minutes after intravenous administration. When the latency of pain increased, the maximum time of exposure was restricted to 12 seconds and an increase in the latent period to ≥150% of the pre-test average value was assessed as an analgesic effect. In order to determine the dosage-dependency, the respective compound according to the invention was applied in doses increasing logarithmically by a factor of 3-5, which included the threshold and the maximum effective dose each time. The ED50 values were determined from the number of analgesic animals by the method of Litchfield and Wilcoxon (J. Pharm. Exp. Ther. 96, […], (1949)). Determination of the ED50 was made at the effective maximum 20 minutes after intravenous administration of the substance.

SMILES	ED50
COc1cccc([C@@]2(O)CC[C@H](Cc3ccccc3)C[C@@H]2CN(C)C)c1.Cl (racemic) [(35), (1RS,2RS,4SR)-4-benzyl-2-dimethylaminomethyl-1-(3-methoxy-phenyl)-cyclohexanol hydrochloride]	2.43 mg/kg
CN(C)C[C@H]1C[C@@H](OCc2ccccc2)CC[C@]1(O)c1cccc(O)c1.Cl [(85), (+)-(1R, 2R, 4S)-3-(4-benzyloxy-2-dimethylaminomethyl-1-hydroxycyclohexyl)-phenol hydrochloride]	0.068 mg/kg
COc1cccc([C@@]2(O)CC[C@H](OCc3ccccc3)C[C@@H]2CN(C)C)c1.Cl [[(+)1], (1R,2R,4S)-4-benzyloxy-2-dimethylaminomethyl-1-(3-methoxy-phenyl)-cyclohexanol hydrochloride]	0.049 mg/kg
CN(C)C[C@H]1C[C@@H](OCC2CCCC2)CC[C@]1(O)c1cccc(OC2CCCC2)c1.Cl (racemic) [(60), (1RS,2RS,4SR)-4-cyclopentylmethoxy-1-(3-cyclopentyl-oxy-phenyl)-2-dimethylaminomethyl-cyclohexanol hydrochloride]	2.46 mg/kg
CN(C)C[C@H]1C[C@@H](CCC2CCCC2)CC[C@]1(O)c1cccc(OC2CCCC2)c1 [(71), hydrochloride]	3.35 mg/kg
CSc1cccc([C@@]2(O)CC[C@H](OCc3ccccc3)C[C@@H]2CN(C)C)c1 [[(+)6], (1R,2R,4S)-4-benzyloxy-2-[(dimethylamino)methyl]-1-(3-methyl-sulphanyl-phenyl)-cyclohexanol hydrochloride]	0.19 mg/kg
C=C(C)CO[C@H]1CC[C@](O)(c2cccc(OC)c2)[C@@H](CN(C)C)C1 (relative stereo) [(14), (1RS,2RS,4SR)-2-dimethylaminomethyl-1-(3-methoxy-phenyl)-4-(2-methyl-2-allyloxy)-cyclohexanol hydrochloride]	0.379 mg/kg
COc1cccc([C@@]2(O)CC[C@H](OCc3ccc(Cl)cc3)C[C@@H]2CN(C)C)c1.Cl [(93), (+)-(1R, 2R, 4S)-4-(4-chloro-benzyloxy)-2-dimethylaminomethyl-1-(3-methoxyphenyl)-cyclohexanol hydrochloride]	0.37 mg/kg
COc1cccc([C@]2(O)CC[C@@H](OCc3ccccc3)C[C@H]2CN(C)C)c1.Cl [[(-)1], (1S,2S,4R)-4-benzyloxy-2-dimethylaminomethyl-1-(3-methoxy-phenyl)-cyclohexanol hydrochloride]	0.822 mg/kg
